# Legend:
# CDK1/Cyclin B1 = CDK1/Cyclin B1 (Homo sapiens, UniProt P06493); experiment: CDK1/Cyclin B1 TR-FRET biochemical assay, 0.015 mM ATP; details: 0.15 μM Rb (Ser780)-biotin substrate, 120 min reaction, Table 1
# CDK2/Cyclin E1 = CDK2/Cyclin E1 (Homo sapiens, UniProt P24941); experiment: CDK2/Cyclin E1 TR-FRET biochemical assay, 0.060 mM ATP; details: 0.15 μM Rb (Ser780)-biotin substrate, 120 min reaction, Table 1
# Sequence of CDK1/Cyclin B1 (P06493 whole entry): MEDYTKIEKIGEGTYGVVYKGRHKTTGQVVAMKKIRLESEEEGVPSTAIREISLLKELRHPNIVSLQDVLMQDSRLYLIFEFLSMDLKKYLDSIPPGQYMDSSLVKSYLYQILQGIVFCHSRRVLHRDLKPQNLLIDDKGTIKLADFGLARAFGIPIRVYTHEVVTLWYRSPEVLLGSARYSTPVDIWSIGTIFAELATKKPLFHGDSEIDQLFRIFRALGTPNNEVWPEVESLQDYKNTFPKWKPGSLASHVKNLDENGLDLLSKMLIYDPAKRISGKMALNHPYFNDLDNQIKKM
# Sequence of CDK1/Cyclin B1 (P14635 whole entry partner): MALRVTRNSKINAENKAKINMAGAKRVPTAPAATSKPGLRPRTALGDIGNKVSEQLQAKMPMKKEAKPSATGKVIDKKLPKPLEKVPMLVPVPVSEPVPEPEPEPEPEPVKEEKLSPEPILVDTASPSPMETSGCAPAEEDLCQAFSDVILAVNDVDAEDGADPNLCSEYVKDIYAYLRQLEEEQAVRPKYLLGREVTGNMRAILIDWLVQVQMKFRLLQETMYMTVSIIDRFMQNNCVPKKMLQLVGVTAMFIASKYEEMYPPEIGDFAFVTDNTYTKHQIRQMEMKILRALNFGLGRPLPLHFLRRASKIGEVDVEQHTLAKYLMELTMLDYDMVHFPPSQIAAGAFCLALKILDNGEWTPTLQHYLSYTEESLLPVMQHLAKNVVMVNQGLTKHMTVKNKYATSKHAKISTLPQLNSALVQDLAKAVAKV
IC50 (CDK1/Cyclin B1),IC50 (CDK2/Cyclin E1),Structure (SMILES)
301 nM,4.9 nM,"CC(C)(C)c1n[nH]cc1OC1CCC(c2cc(Nc3ccc4c(c3F)CNS4(=O)=O)n[nH]2)C1 (single isomer, unassigned) [Example 74a, cis-5-((5-(3-((3-(tert-butyl)-1H-pyrazol-4-yl)oxy)cyclopentyl)-1H-pyrazol-3-yl)amino)-4-fluoro-2,3-dihydrobenzo[d]isothiazole 1,1-dioxide]"
671 nM,18 nM,"CC(C)(C)c1n[nH]cc1OC1CCC(c2cc(Nc3ccc4c(c3F)CNS4(=O)=O)n[nH]2)C1 (single isomer, unassigned) [Example 74b, cis-5-((5-(3-((3-(tert-butyl)-1H-pyrazol-4-yl)oxy)cyclopentyl)-1H-pyrazol-3-yl)amino)-4-fluoro-2,3-dihydrobenzo[d]isothiazole 1,1-dioxide]"
237 nM,7.6 nM,"CC1(C)NC(=O)N(C2CCC(c3cc(Nc4ccc5c(c4F)CNS5(=O)=O)n[nH]3)C2)C1=O (single isomer, unassigned) [Example 84a, cis-3-(3-(3-((4-fluoro-1,1-dioxido-2,3-dihydrobenzo[d]isothiazol-5-yl)amino)-1H-pyrazol-5-yl)cyclopentyl)-5,5-dimethylimidazolidine-2,4-dione]"
142 nM,14 nM,"CC1(C)NC(=O)N(C2CCC(c3cc(Nc4ccc5c(c4F)CNS5(=O)=O)n[nH]3)C2)C1=O (single isomer, unassigned) [Example 84b, cis-3-(3-(3-((4-fluoro-1,1-dioxido-2,3-dihydrobenzo[d]isothiazol-5-yl)amino)-1H-pyrazol-5-yl)cyclopentyl)-5,5-dimethylimidazolidine-2,4-dione]"
53 nM,1.3 nM,"CC(C)(C)c1cnc(C2CCC(c3cc(Nc4ccc5c(c4F)CNS5(=O)=O)n[nH]3)C2)o1 (single isomer, unassigned) [Example 91a, cis-5-((5-(3-(5-(tert-butyl)oxazol-2-yl)cyclopentyl)-1H-pyrazol-3-yl)amino)-4-fluoro-2,3-dihydrobenzo[d]isothiazole 1,1-dioxide]"
2570 nM,23 nM,"CC(C)(C)c1cnc(C2CCC(c3cc(Nc4ccc5c(c4F)CNS5(=O)=O)n[nH]3)C2)o1 (single isomer, unassigned) [Example 91b, cis-5-((5-(3-(5-(tert-butyl)oxazol-2-yl)cyclopentyl)-1H-pyrazol-3-yl)amino)-4-fluoro-2,3-dihydrobenzo[d]isothiazole 1,1-dioxide]"
509 nM,21 nM,"CCc1cnc(C2CCC(c3cc(Nc4ccc5c(c4F)CNS5(=O)=O)n[nH]3)C2)o1 (stereo not shown) [Example 92, 5-((5-(3-(5-ethyloxazol-2-yl)cyclopentyl)-1H-pyrazol-3-yl)amino)-4-fluoro-2,3-dihydrobenzo[d]isothiazole 1,1-dioxide]"
1760 nM,70 nM,"O=S1(=O)NCc2c1ccc(Nc1cc(C3CCC(c4ncc(CO)o4)C3)[nH]n1)c2F (stereo not shown) [Example 93, 4-fluoro-5-((5-(3-(5-(hydroxymethyl)oxazol-2-yl)cyclopentyl)-1H-pyrazol-3-yl)amino)-2,3-dihydrobenzo[d]isothiazole 1,1-dioxide]"
82 nM,6.2 nM,"CCc1cnc(C2CCC(c3cc(Nc4ccc5c(c4)CS(=O)(=O)N5)n[nH]3)C2)o1 (stereo not shown) [Example 133, 5-((5-(3-(5-ethyloxazol-2-yl)cyclopentyl)-1H-pyrazol-3-yl)amino)-1,3-dihydrobenzo[c]isothiazole 2,2-dioxide]"
1110 nM,41 nM,"O=S1(=O)Cc2cc(Nc3cc(C4CCC(c5ncc(CO)o5)C4)[nH]n3)ccc2N1 (stereo not shown) [Example 134, 5-((5-(3-(5-(hydroxymethyl)oxazol-2-yl)cyclopentyl)-1H-pyrazol-3-yl)amino)-1,3-dihydrobenzo[c]isothiazole 2,2-dioxide]"
334 nM,16 nM,"CCc1cnc(C2CCC(c3cc(Nc4ccc5c(c4F)CS(=O)(=O)N5)n[nH]3)C2)o1 (stereo not shown) [Example 144, 5-((5-(3-(5-ethyloxazol-2-yl)cyclopentyl)-1H-pyrazol-3-yl)amino)-4-fluoro-1,3-dihydrobenzo[c]isothiazole 2,2-dioxide]"

# — patent US20260200897A1, “4-((5-(3-(4-(PYRIDIN-2-YL)CYCLOPENTYL)-1H-PYRAZOL-3-YL)AMINO)-BENZENESULFONAMIDE DERIVATIVES AND SIMILAR COMPOUNDS AS CDK INHIBITORS FOR THE TREATMENT OF CANCER” (BeOne Medicines I GmbH, priority 2023, published 2026)
